For this assay, the system named is soybean rust fungus (Phakopsora pachyrhizi) having an amino acid substitution of F129L on mitochondrial cytochrome b protein. Description: Leaf disk test for control of soybean rust (Test Example 1 / Comparative Test Example 1). In kind it is in vivo. Particulars: method of Test Example 1. How it is done: Soybean leaf (cv; Kurosengoku) was punched out to 1 cm diameter to prepare a leaf disk. Each 1 mL of an agar medium (agar concentration 1.2%) was dispensed in 24 well microplate. A piece of the leaf disk was placed on each well. To a mixture of 0.5 μL of Sorpol (registered trademark) 1200KX, 4.5 μL of DMSO, and 5 μL of xylene was added 20 μL of a solution containing 10000 ppm of the test compound in DMSO. The resulting mixture was diluted with ion exchange water to prepare a spray solution containing a predetermined concentration of the test compound. The spray solution was sprayed in 10 μL per one leaf disk. After 1 day, an aqueous suspension of spores of soybean rust fungus (Phakopsora pachyrhizi) having an amino acid substitution of F129L on mitochondrial cytochrome b protein (1.0×10^5/mL) was inoculated onto the leaf disks. After the inoculation, the microplate was placed in a growth chamber (light on for 6 hours, light off for 18 hours, 23° C. temperature, 60% humidity). After 1 day, the leaf disks were air-dried to disappear water droplets on the surface of the leaf disk, and the microplate was placed again in the growth chamber for 12 days. Thereafter, a lesion area of soybean rust disease was assessed. […] Here the untreated means that the spray solution containing the test compound was not sprayed onto the leaf disk.
The test was conducted by using as a test compound the compound 3 or 8 of the present invention, the present compound 6, 12, 13, 22, 38, 40, 48, 51, 64 or 84, pyraclostrobin, azoxystrobin, picoxystrobin, orysastrobin, dimoxystrobin, metominostrobin, or pyribencarb at 12.5 ppm or 3.1 ppm according to a method described in the Test Example 1. The results are indicated in [Table A], [Table B], and [Table C].

As for `CO/C=C(\Oc1cc(/C=C/C2CC2)ccc1C)C(=O)OC` [Compound 3 of the present invention], the “Lesion area (%)” value is, setting by setting: (3.1 ppm) 10%; (12.5 ppm) 0%.

As to `CO/N=C(\Cc1cc(C#CC(C)(C)C)ccc1C)C(=O)OC` [Present Compound 6], the “Lesion area (%)” value (3.1 ppm) is recorded as 0% and the “Lesion area (%)” value (12.5 ppm) is recorded as 0%.

On to `CNC(=O)/C(Cc1cc(C#CC(C)(C)OC)ccc1C)=N/OC` [Present Compound 12], for which the “Lesion area (%)” value runs as follows: (3.1 ppm) 0%; (12.5 ppm) 0%.

On to `COc1nn(C)c(=O)n1Cc1cc(C#C[Si](C)(C)C)ccc1C` [Present Compound 13], for which the “Lesion area (%)” value is, setting by setting: (3.1 ppm) 30%; (12.5 ppm) 0%.

Turning to `CO/C=C(\Oc1cc(-c2ccc(F)cc2)ccc1C)C(=O)OC` [Present Compound 22], the “Lesion area (%)” value runs as follows: (3.1 ppm) 10%; (12.5 ppm) 0%.

Consider `Cc1ccc(-c2ccccc2)cc1Cn1c(C(F)F)nn(C)c1=O` [Present Compound 40], for which the “Lesion area (%)” value was determined as 0% (3.1 ppm) and 0% (12.5 ppm).

With `CO/C=C(\Oc1cc(/C(C)=N/OCc2cccc(C)c2)ccc1C)C(=O)OC` [Present Compound 48], for the setting “12.5 ppm”, the “Lesion area (%)” value was 0%.

Turning to `CCCO/N=C(\C)c1ccc(C)c(C/C(=N\OC)C(=O)NC)c1` [Present Compound 51], the “Lesion area (%)” value (12.5 ppm) stood at 0%.

Turning to `CO/C=C(\Oc1cc(-c2cccs2)ccc1C)C(=O)OC` [Present Compound 64], the “Lesion area (%)” value by setting is: (3.1 ppm) 10%; (12.5 ppm) 0%.

For `CO/C=C(\Oc1cc(/C(C)=N/OCC2CCC2)ccc1C)C(=O)OC` [Present Compound 84], the “Lesion area (%)” value (12.5 ppm) is reported as 0%.

On to `CO/C=C(/C(=O)OC)c1ccccc1Oc1cc(Oc2ccccc2C#N)ncn1` [azoxystrobin, reference compound], for which the “Lesion area (%)” value is, setting by setting: (3.1 ppm) 100%; (12.5 ppm) 100%.

Turning to `CNC(=O)/C(=N/OC)c1ccccc1COc1cc(C)ccc1C` [dimoxystrobin, reference compound], the “Lesion area (%)” value by setting is: (3.1 ppm) 100%; (12.5 ppm) 100%.

As for `CNC(=O)/C(=N/OC)c1ccccc1Oc1ccccc1` [metominostrobin, reference compound], the “Lesion area (%)” value stood at 100% (3.1 ppm) and 100% (12.5 ppm).

With `CNC(=O)/C(=N/OC)c1ccccc1CO/N=C(C)/C(=N/OC)C(/C)=N/OC` [orysastrobin, reference compound], the “Lesion area (%)” value by setting is: (3.1 ppm) 100%; (12.5 ppm) 100%.

As for `CO/C=C(/C(=O)OC)c1ccccc1COc1cccc(C(F)(F)F)n1` [picoxystrobin, reference compound], the “Lesion area (%)” value stood at 100% (3.1 ppm) and 100% (12.5 ppm).

As to `COC(=O)N(OC)c1ccccc1COc1ccn(-c2ccc(Cl)cc2)n1` [pyraclostrobin, reference compound], the “Lesion area (%)” value by setting is: (3.1 ppm) 100%; (12.5 ppm) 100%.

As for `COC(=O)NCc1cc(/C(C)=N/OCc2cccc(C)n2)ccc1Cl` [pyribencarb, reference compound], the “Lesion area (%)” value (3.1 ppm) is on record as 100% and the “Lesion area (%)” value (12.5 ppm) is 100%.

These data come from patent publication US11849728B2, “Method for controlling soybean rust fungus having resistance against Qo site inhibitor” (SUMITOMO CHEMICAL COMPANY, LIMITED, priority 2018, dated 2023).
